Data set [1] has as its system human T cells. Nature of the data set: One-way mixed lymphocyte reaction, T cell proliferation and cytokines. It is filed as cell-based. From the text:
Amgen Institutional Review Board approval and consent was obtained for collection and the studies involving human blood. PBMC were obtained from volunteers’ human blood using Ficoll. T cells were isolated using magnetic sorting with a pan T cell isolation kit (Miltenyi Biotec). Stimulator cells were isolated by negative magnetic sorting using anti-CD3 beads to deplete CD3+ cells. The stimulator cells were irradiated and mixed together with the purified T cells in the presence or absence of the SCFA or agonist. Supernatants were collected at day 3 for cytokine measurements using Meso Scale Discovery multiplex kits, and proliferation was measured at day 4 after an 18 hour pulse with 1μCi 3H-thymidine per well.

Data set [2] concerns the target T1, human FFA2 receptor (Homo sapiens, UniProt O15552).
T1 construct: expressed in transfected cells
T1 sequence (O15552 1-330): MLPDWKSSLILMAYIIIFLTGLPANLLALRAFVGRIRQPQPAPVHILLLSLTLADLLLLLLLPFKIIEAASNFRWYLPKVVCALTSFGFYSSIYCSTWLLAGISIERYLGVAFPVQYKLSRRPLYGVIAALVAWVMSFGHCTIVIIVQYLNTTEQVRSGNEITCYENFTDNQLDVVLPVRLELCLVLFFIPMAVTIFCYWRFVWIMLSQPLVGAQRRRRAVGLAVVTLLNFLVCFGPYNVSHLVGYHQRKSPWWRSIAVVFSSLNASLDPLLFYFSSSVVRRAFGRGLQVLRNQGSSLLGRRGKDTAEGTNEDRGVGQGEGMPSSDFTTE
As to the kind of experiment: Aequorin assay, cytosolic calcium in CHO-K1 cells stably expressing aequorin and human FFA2 receptor. It is filed as cell-based. To be noted: CHO-K1 cells stably expressing human GPR43, read-out: Ca^2+ (Aequorin). How it is done: Agonist-induced receptor activation was determined by an increase in cytosolic calcium concentration in CHO-K1 cells stably expressing the mitochondrial targeted aequorin and human FFA2 receptor. The increased cytosolic calcium was monitored by luminescence emitted from aequorin as previously described

The test system of data set [3] is human PBMC. As to the kind of experiment: LPS stimulation of PBMC, cytokine production. It is filed as cell-based. To be noted: for effect on LPS-induced cytokine production: μM range; for effect on LPS-induced cytokine production / IC50: 1 μg/mL LPS, 18 hours; for IC50: Homo sapiens, PBMC, 45 minutes preincubation. How it is done:
Amgen Institutional Review Board approval and consent was obtained for collection and the studies involving human blood. PBMC were isolated from heparinized blood using Ficoll and then plated onto 96-well plates. Butyrate or GPR43 agonists were incubated with the PBMC for 45 minutes prior to the addition of 1 μg/mL lipopolysaccharide (LPS). Cell culture supernatants were collected at 18 hours post-stimulation. TNFα, IL-1β and IL-6 production were measured using Meso Scale Discovery multiplex kits.

For data set [4], the target named is T2, human GPR43 (Homo sapiens, UniProt O15552).
T2 construct: expressed in transfected cells
T2 sequence (O15552 1-330): T1 sequence (O15552 1-330)
Nature of the data set: cAMP inhibition assay (HTRF), forskolin-induced cAMP in CHO cells stably expressing human GPR43. The data set is classed as cell-based. To be noted: inhibition of forskolin-induced cAMP production. How it is done: A competitive, HTRF® immunoassay (CisBio Dynamic 2 cAMP kit) was used to measure the inhibition of cAMP response in CHO cells stably expressing human GPR43. Assay-ready cells were thawed, resuspended in PBS and stimulated with forskolin (3μM final) for 45 minutes at room temperature in the presence of serially diluted natural ligands or test compounds in a 384 well plate (Greiner). Subsequently the cells were lysed by adding lysis buffer containing the cAMP-Tracer and Europium-labeled anti-cAMP antibody according to the manufacturer’s protocol. The signals were recorded using a Perkin Elmer Envision. The raw data was calculated as fluorescence ratio (665nm/620nm) and analyzed using GraphPad Prism Software.
(TR-FRET usually uses a lanthanide donor and a delayed reading to cut background.)

Data set [5] deals with C2BBe1 cells. As to the kind of experiment: Intestinal barrier function by ECIS in C2BBe1 cells. It is filed as cell-based, human. To be noted: 48 hours; for barrier resistance (ECIS), barrier formation: 75 Hz, #58 at 1 uM and 10 uM vs DMSO control. How it is done:
Cells were cultured in DMEM containing 10% FBS, and the next day (day 1), the medium was replaced with that containing 0.5% serum. On day 2, media was changed and test agents were added in duplicate in media containing 0.5% serum. The experiment was concluded 48 hours later (day 4). Barrier resistance was measured on the ECIS instrument. The plots shown are at 75 Hz beginning at day 2 post-addition of the test agents with resistance values normalized to those observed just prior to the addition of test agents. For barrier disruption and reformation studies, cells were cultured in transwells in the ECIS array as described above in the presence of 10% serum for one day and 0.5% serum for another day. On day 2, the media was replaced with media containing 0.5% serum and 2.5 mM EGTA (in apical and basolateral chambers). The EGTA was washed off 5 hours later and replaced with media containing 0.5% serum and test agents. Cells were monitored over the next 48 hours for barrier reformation and the plots shown are at 75 Hz with resistance values normalized to those observed just prior to the addition of test agents.

In data set [6] the test system is intestinal epithelial cells. Also on record: method as in PMID 9142899, PMID 17211138. To be noted: published data ref [13], [15]; cited from earlier work.
The test system of data set [7] is C2BBe1 cells. As to the kind of experiment: Intestinal barrier function by TEER and Lucifer Yellow in C2BBe1 monolayers.
Where [8] appears, read: 72 h, supernatant day 3, read-out: IL-17A IC50.

Read-outs that look alike come from different tables or passages of the source.

For the compound `CC(C)[C@H](C(=O)Nc1ncc(F)s1)c1ccc(Cl)cc1` [#44], the IC50 in data set [1] (setting [8]) amounted to 2.45 µM. Besides, the EC50 in data set [2] (10% FBS) is 1 µM; in data set [2] (No FBS), 0.6 µM; in data set [4] it was 1.1 µM. In data set [3], the “effect on LPS-induced cytokine production” value is given as “only the highest concentration of the agonist #44 resulted in inhibition of cytokine production”.
Turning to `CC(C)(C)[C@H](C(=O)Nc1ncc(-c2ccccc2)s1)c1ccc(Cl)cc1` [#58], the IC50 in data set [1] (setting [8]) turned out to be 8.88 µM. Besides, the EC50 in data set [2] (10% FBS) turned out to be 0.6 µM; in data set [2] (No FBS) it was 0.3 µM; in data set [4], 1.8 µM. Also, the “effect on LPS-induced cytokine production” value in data set [3] is recorded as “slight increase in some cytokines”. For the same compound, the “barrier resistance (ECIS), barrier formation” value in data set [5] was “did not result in increased resistance”.
For `CCCC(=O)O` [Butyrate, butyrate], the IC50 came out at 50 µM in data set [1] (72 h, supernatant day 3, read-out: IFNγ IC50); 60 µM in data set [1] (setting [8]); 170 µM in data set [1] (day 4, 3H-thymidine, read-out: Proliferation IC50); 440 µM in data set [3] (read-out: IL-1β IC50); 2440 µM in data set [3] (read-out: IL-6 IC50); 130 µM in data set [3] (read-out: TNFα IC50). The cell viability entry in data set [3] (highest concentrations utilized in this assay) was “not altered”. The compound further displayed an EC50 in data set [4] of 1060 µM. For the same compound, the “barrier reformation after EGTA disruption (ECIS resistance)” value in data set [5] (2.5 mM EGTA 5 hours, then test agents) is “earlier and higher levels of resistance”. In addition, the “barrier resistance (ECIS), barrier formation” value in data set [5] is “quicker increase, as well as higher measurements of resistance”. Also, the “concentrations toxic to intestinal epithelial cells” value in data set [6] is above 5000 µM. Also, in data set [7] (5 mM), the “toxicity in TEER assays” value is on record as “appeared to be toxic”. Besides, the “effect on transepithelial electrical resistance (TEER)” value in data set [7] (C2BBe1 monolayers, day 5) is listed as “most potent of the three SCFA”.

These data come from paper PMC5519041, “Differing roles for short chain fatty acids and GPR43 agonism in the regulation of intestinal barrier function and immune responses” (PLoS ONE, 2017).
